A melting point compilation (Tetko et al.; mined from patent text by program, amines drawn as free bases though some values may be those of a salt)

SMILES | melting point [°C]
CCOC(Cc1ccc(OCc2nc(C(C)(C)C)oc2C)c2ccsc12)C(=O)O (stereo unspecified) | 179 to 180
O=C(c1ccccc1)N1CCC2(CC1)Cc1ccccc1C2=O | 149 to 154
CCCCCS(=O)(=O)NC(=O)CCc1cc(-c2ccccc2)nn1Cc1ccc(Cl)cc1Cl | 145 to 147
Cn1ccnc1Sc1cc(Cl)ccc1[N+](=O)[O-] | 130 to 131
Cc1cc(C)n(-c2ncc(C)c(Nc3ccc(Cl)cc3)n2)n1 | 179 to 182
NC(=O)c1ccc(-c2cnc3c(c2)N(Cc2ccccc2)C(=O)CN3)cc1 | > 200
C=CCC12CC(=O)N(C)C1(O)CCc1ccc(OC)cc12 (stereo unspecified) | 146 to 149
CC(=O)c1ccc2c(c1)CCC(=O)CO2 | 80 to 82
COC1C(=O)N=C(NC(=O)Nc2cccc(Cl)c2)N1C (stereo unspecified) | 147 to 149
CNc1nc(N)nc2cc(-c3ccccc3S(=O)(=O)NC)ccc12 | 316 to 317
Cc1ccc(Nc2ccc(Nc3ncnc4cc(-c5ccccc5)sc34)cc2)cc1 | 221 to 222
CC(C)(C)OC(=O)[C@H]1CCCN1 | 51.5 to 53.2
COc1cc(C(=O)c2ccccc2[N+](=O)[O-])c(Br)cn1 | 128 to 131
O=C(c1cc2cc3[nH]c(=O)oc3cc2[nH]1)N1CCC(Cc2ccccc2)CC1 | 270 to 271
Cc1ccc(-c2c3c(cc4ccc5c(c24)OCO5)C(=O)NC3=O)cc1 | 297 to 299
CCCC(=O)NCCc1c(OC)ccc2ccccc12 | 73 to 79
NC(=O)c1sc2nc(N3CCC(NCC(O)c4ccccn4)CC3)cc(C(F)(F)F)c2c1N (stereo unspecified) | 165 to 167
O=C(O)CCc1cccc(-c2nc(=O)c3ccccc3s2)n1 | 243 to 244
Cc1cccc(-n2nc(C(N)=O)nc2-c2ccccc2)c1 | 142 to 143
CS(=O)(=O)C(=C1CN(C(c2ccccc2)c2ccccc2)C1)c1cc(C(F)(F)F)cc(C(F)(F)F)c1 | 192
C[C@@H]1O[C@](C#CC2CC2)(C(F)(F)F)c2cc(F)ccc2NC1=O (relative stereo) | 184 to 185
O=S(=O)(/C=C/c1ccc(Cl)cc1)Nc1ccc(F)cc1 | 105 to 107
C#CCN(C)C(=S)Nc1ccccc1CC(=O)OC | 83 to 84
O=C(NCCCn1cnc(-c2ccccc2)c1)c1ccc(Br)cc1 | 132 to 135
Oc1cc(Cl)nc(Cl)c1 | 201 to 202
COc1ccc2c(c1)Cc1cc(F)ccc1C(=O)C2 | 129 to 130

SMILES | melting point [°C]
Cc1cc(Oc2cccc(C(F)(F)F)c2)nn1C(=O)Nc1ccc(Cl)c(Cl)c1 | 97 to 99
O=C1c2ccc(OCCCO)cc2C(=O)c2ccc(OCCCO)cc21 | 190
O=C(O)c1cc(=O)c(Sc2ccc(Cl)cc2)co1 | 165 to 167
Nc1nc(N)c2cc(Sc3ccc(Cl)c(Cl)c3)ccc2n1 | 232 to 234
Cc1ccc2c3c(c(=O)oc2c1)CN(CCN1CC2CCC(CC2)C1)CC3 | 155 to 157
COc1cc(Cl)c2c(c1)CCN2c1cc(NC(C)C2CCC2)nc(C)n1 (stereo unspecified) | 125 to 128
COC1=CCc2cccc(N)c2C1 | 84 to 85
C=CCSc1ccc(OC)nn1 | 25 to 27
CC(N)Cn1cc(-c2ccccc2)c2ccccc2c1=O (stereo unspecified) | 104
Cc1cc(-c2ncn(Cc3ccc(F)cc3)n2)sc1C(=O)NCc1ccccc1 | 128 to 130
Cc1cccc(N2C(=O)C(=CN(C)C)c3ccccc32)c1 | 105 to 108
CC(=O)SCC(=Cc1ccc(-c2ccccc2)cc1)C(=O)NCCC(=O)OCc1ccccc1 | 76
COc1ccc2[nH]c3c(c2c1)C(C(=O)OCc1ccccc1)CCC3 (stereo unspecified) | 81 to 83
Clc1ccc(C2(Cn3ccnc3)OCC(COc3ccc(-c4ccccc4)cc3)O2)c(Cl)c1 (stereo unspecified) | 156
O=C(Nc1ccc(Oc2ccnc(NC3CCCCC3)n2)c2ccccc12)c1cc(F)cc(N2CCCCC2)c1 | 118 to 120
CC(C)CC1(C(CCN2C(=O)c3c(F)c(F)c(F)c(F)c3C2=O)C(=O)NO)CCN(Cc2ccccc2)C1=O (stereo unspecified) | 183 to 185
COC(=O)c1ccccc1NC(=O)NCC1(c2ccccc2)CCCCC1 | 91 to 94
CCOC(=O)C1=C(N2CCCC2)N=C(C)C(C(=O)OC)C1c1cccc([N+](=O)[O-])c1 (stereo unspecified) | 103
CCCCC(CNC(=O)Nc1c(C(C)C)cccc1C(C)C)c1ccc2c(c1)OCO2 (stereo unspecified) | 153 to 155
CCCCOC(=O)c1ccc(-c2cc(-c3ccc4c(c3)C(C)(C)CCC4(C)C)nc(O)n2)cc1 | 267 to 277
CC(=NNC(=O)c1ccc2n1Cc1ccccc1N(C(=O)c1ccc(C3CCCCC3)cc1)C2)N(C)C | 164 to 175
CCc1cc(C(=O)O)c(C)o1 | 97 to 99
CCCCOCCOc1ccc(-c2ccc(N3CC=CC3)c(C=C(C)C(=O)O)c2)cc1 | 138 to 140
Cc1cccc(C(C)(C)C)c1NC(=O)NCC1(c2ccccc2)CCCCC1 | 196 to 197
C=CCC(C)(C)C(O)C(c1cccc(Cl)c1)n1ccnc1 (stereo unspecified) | 95
CCOc1cc(-c2cc(C(F)(F)F)n3ncc(C(=O)Nc4nc(C)c(S(N)(=O)=O)s4)c3n2)ccc1C(F)(F)F | 300

SMILES | melting point [°C]
CCOC(=O)Nc1cc(OCC)c(Br)cc1F | 92.5 to 95
COC(=O)c1ccc(N2CCOCC2)cc1 | 152 to 154
CCOC(=O)c1cnc(S(=O)Cc2ccccc2)n1-c1c(CC)cccc1CC (stereo unspecified) | 82 to 83
Cc1ccc(-c2ccc3c(c2)C=C(C(=O)NC2CCN(CC4=CCCCCCC4)CC2)CCO3)cc1 | 148 to 151
CCn1cnc2c(N)nc(Cl)nc21 | 258 to 262
CCOC(=O)CN1C(=O)N(c2ccc(C)cc2)C2(CCCCC2)C1=O | 132
O=S1CCn2c1nc(-c1ccc(F)cc1)c2-c1ccncc1 (stereo unspecified) | 229 to 231
CCCCOCCOc1ccc(-c2cnc(N3CCCC3)c(/C=C(\C)C(=O)O)c2)cc1 | 106 to 107
Nc1cc(Cl)cc(N)c1[N+](=O)[O-] | 202
CCC#COc1ccc(S(=O)(=O)NC(CSC)C(=O)NO)cc1 (stereo unspecified) | 128 to 130
FC(F)(F)COc1ccc(-c2cc(C(F)(F)F)n3cnc(-c4ccncc4)c3n2)cc1C(F)(F)F | 269
O=C1CN(C/C=C/c2ccc(Cl)cc2)CCN1c1cc(F)ccc1[N+](=O)[O-] | 57
COc1ccc(C=CC(=O)NNC(=O)C=Cc2ccc(OC)cc2)cc1 | 288
C[C@]1(CN2CCN(c3ccc(C(=O)O)cc3)CC2)Cn2cc([N+](=O)[O-])nc2O1 | 248 to 252
CCC(CC)C(NS(=O)(=O)c1ccc(Cl)cc1)c1ccnn1-c1ccccc1 (stereo unspecified) | 135 to 136
CN(C)C=C(C=O)c1cccc(F)c1 | 42 to 43.5
O=C1NC2C(CC(O)C(O)C2O)c2cc3c(c(O)c21)OCO3 (stereo unspecified) | 182
Cc1c(NCCNCC(O)COc2ccccc2)n(C)c(=O)n(C)c1=O (stereo unspecified) | 81 to 82
COC(=O)CC1CCc2cc(OC)ncc2C1O (stereo unspecified) | 92 to 96
CN1CCN(c2ccc(C(=O)C(C)(C)N3CCN(C)CC3)cc2)CC1 | 133 to 136
CC1(C)CC(=O)CC(C)(C)N1SSSSN1C(C)(C)CC(=O)CC1(C)C | 148 to 150
CCOC(=O)C(C)(C)Oc1ccc(-c2ccc(CCNC(=O)c3cccc(OC)c3OC)cc2)cc1 | < 20
COC(C)COC1C(n2cc(C)c(=O)[nH]c2=O)OC(COCc2ccccc2)(COS(=O)(=O)c2ccc(C)cc2)C1(CCO)OCc1ccccc1 (stereo unspecified) | 90 to 92
O=C(O)C=CC=Cc1cccc2cncn12 | 243 to 245
CC(C(=O)c1ccc(Cl)cc1)N1CCC(O)(Cc2ccccc2)CC1 (stereo unspecified) | 136
C=CC(O)C(NC=O)C(=O)OCC (stereo unspecified) | 50 to 51

SMILES | melting point [°C]
CCOC(=O)NNc1ccnc2c(NC(=O)c3c(Cl)cccc3Cl)cccc12 | 151 to 155
CCCCc1nc2cccc(C=O)c2n1Cc1ccccc1Cl | 114 to 115
Cc1ccc(Cc2cnc(NCCCN(Cc3ccccc3)c3ccccn3)[nH]c2=O)cn1 | 90 to 96
CCCCS(=O)(=O)c1ncn(C(=O)N(CCC)CCC)n1 | 38.5 to 39.5
OC(c1ccc(Cl)cc1)c1ccccc1Cl (stereo unspecified) | 68 to 70
C[C@@H]1N=C(c2ccccc2Cl)c2cc(I)sc2NC1=O | 235 to 237
Cc1ccc(Cc2cnc(NCCCNc3ccc(C#N)cn3)[nH]c2=O)cn1 | 175 to 177
CC(C)(C)NC(=NC#N)Nc1cccnc1 | 205 to 206
CCOC(=O)c1c(C(F)(F)F)nc(OCC)c(C(N)=O)c1OCC | 103 to 105
CCS(=O)(=O)c1ccc(-c2nc(-c3nc4cc(OC)cc(OC)c4c(=O)[nH]3)ccc2OCCNC(C)C)cc1 | 195 to 197
CC(=O)c1c(S(=O)(=O)C(F)(F)F)c(C#N)nn1-c1c(Cl)cc(C(F)(F)F)cc1Cl | 161
CCCc1cc(=O)oc2cc(O)cc(O)c12 | 227 to 229
O=c1cc(-c2cccc(Br)c2)sc(N2CCOCC2)c1 | 181 to 182
CCOC(=O)COc1cc(O)c(C(=O)CN2Cc3cc(C(N)=S)ccc3C2=O)cc1OCC(=O)OCC | 142 to 143
N[C@@]1(C(=O)O)C[C@H](Oc2ccc(Cl)cc2Cl)[C@H]2[C@H](C(=O)O)[C@H]21 (relative stereo) | > 250
NNCCCS(=O)(=O)O | 147 to 148
O=C(O)C1CN(CCCS(=O)(=O)O)CCN1 (stereo unspecified) | 190 to 191
Cc1ncn(-c2ccc(N)cc2F)n1 | 122 to 125
Fc1cccnc1N1CCN(Cc2nc3ccccc3[nH]2)CC1 | 210 to 212
CCOCc1nc2c(N)nc3cc(-c4cncc(CO)c4)cnc3c2n1CC(C)(C)O | 212 to 214
c1ccc(N2c3ccccc3CC2C2=NCCN2)cc1 (stereo unspecified) | 141 to 144
COCc1cnc2c(NC(=O)c3c(Cl)cccc3Cl)cccc2c1N1CCN(C)C1=O | 199 to 201
Cc1c(O)cc2c(c1Cl)CCC2(C)C | 109 to 110
